Patent publication US20120076781A1, “METHODS OF TREATING CANCERS WITH HER3 ANTISENSE OLIGONUCLEOTIDES” (ENZON PHARMACEUTICALS, INC., priority 2009, published 2012)
In the oligonucleotide strings, read from the 5' end, every base follows the letter of its sugar. An asterisk marks phosphorothioate; unmarked linkages are phosphodiester. Other units and linkages are bracketed, terminal groups are in braces. A string of capitals states the bases alone. l = locked nucleic acid (LNA); [5mC] = 5-methylcytosine; d = 2'-deoxy (DNA)

Columns and labels:
human HER3 mRNA = assay: HER3 mRNA knockdown in 15PC3 xenograft tumor in nude mice, qd x 5 (qRT-PCR); assay type: in vivo; conditions: i.v., relative to saline controls
Experimental: (§1) To evaluate the knockdown efficacy of the HER3 oligomeric compounds in vivo, the female nude mice bearing 15PC3 xenografts developed by subcutaneous injection of 5×10^6 cells/mouse into the right axillary flank, were injected intravenously with the oligomers at various doses and injection schedules (i.e. single dose, qd, q3d, q4d). Scrambled oligomer SEQ ID NO: 236 served as a negative control. 24 hours after the last injection, the mice were euthanized and liver and tumor tissues were collected in RNAlater solution (Ambion). Total RNA was purified from the tissues and the levels of HER3 mRNA were determined by quantitative reverse transcription-real time PCR (qRT-PCR) using the QuantiTect Probe RT-PCR kit (Cat#: 204443; Qiagen). GAPDH mRNA served as an internal control.
(§2) 200 ng of total RNA was used in the PCR reaction. The data analyses were performed by using the ABI-7500 PCR Fast System included software.
(§3) Data in Table 5 are presented as % HER3 mRNA levels relative to saline treated controls in liver and tumor samples after i.v. dosing of animals on 5 consecutive days with oligonucleotides in the doses indicated.

[1] = tested on: HCC827 human cell line xenograft; assay: Tumor growth in mouse xenograft model of human non-small cell lung cancer; assay type: in vivo; conditions: at approximately 31 days
HER3 mRNA [2] = assay: HER3 mRNA knockdown in A549 (NSCLC) xenograft tumor; assay type: in vivo, human; conditions: 35 mg/kg, q4d x 3, i.v.
Experimental: as §1
(§4) The knockdown efficacy of oligomers was evaluated in vivo in nude mice bearing xenograft tumors derived from 15PC3 cells or A549 cells (NSCLC) or N87 cells (gastric carcinoma) using a similar protocol to the one described above in Example 11. Oligomers were administered by injection every third day in 2-4 doses. Tissues were harvested 3 or 4 days after the last injection.
(§5) Data in Tables 6 and 7 are presented as % HER3 mRNA or HIF-1 alpha mRNA relative to saline treated controls in liver and tumor samples after i.v. dosing of animals with the indicated oligomers.

HER3 mRNA [3] = assay: HER3 mRNA knockdown in 15PC3 xenograft tumor, different dosing cycle; assay type: in vivo, human; conditions: every third day
Experimental: as §1, §4, §5

[4] = tested on: HCC827 gefitinib-sensitive cells; assay: Colony growth of gefitinib-sensitive HCC827 cells (MTT staining, colony count); assay type: cell-based, human; conditions: 1 μM, 10 days
Experimental: (§6) HCC827 lung adenocarcinoma cells (ATCC CRL-2868) were maintained at 37° C. in a humidified atmosphere of 5% CO2 and 95% air in RPMI medium supplemented with 10% fetal bovine serum. To generate gefitinib resistance, cells were treated with increasing amounts of gefitinib (up to 500 nM) for a period of 3 months.
(§7) HCC287 and HCC287R cells were plated in duplicate at 200 cells/well of a 6-well plate and incubated for 24 hours. Cells were treated with 1 μM of ON180 (SEQ ID NO: 180) and incubated for 10 days, after which cells were stained with MTT and the number of colonies counted. Percent of control was calculated for both HCC827 and […] cells.

Mouse HER3 mRNA = assay: HER3 mRNA knockdown in liver of nude mice bearing 15PC3 xenografts, qd x 5 (qRT-PCR); assay type: in vivo; conditions: i.v.
Experimental: as §1, §2, §3

HIF-1 alpha mRNA = HIF-1 alpha mRNA in 15PC3 xenograft tumor, different dosing cycle; assay type: in vivo, human; conditions: 60.2 x 2 or 3 mg/kg i.v., every third day
Experimental: as §1, §4, §5

[5] = tested on: gefitinib-resistant HCC827 cells; assay: Colony growth of gefitinib-resistant HCC827R cells (MTT staining, colony count); assay type: cell-based, human; conditions: 1 μM, 10 days
Experimental: as §6, §7

HER3 and P-HER3 = assay: Feedback upregulation of HER3 and P-HER3 by lapatinib in BT474, SKBR3 and MDA453 cells; assay type: cell-based, human; conditions: lapatinib 1 μM, trastuzumab 10 μg/ml, SEQ ID NO: 180 5 μM, 0-48 hours
HER3 mRNA [6] = assay: HER3 mRNA knockdown in N87 (gastric carcinoma) xenograft tumor; assay type: in vivo, human; conditions: 25 mg/kg, q3d x 5, i.v.
Experimental: as §1
as §4, with “Oligomers were administered by injection every third day in 2-4 doses.” left out
as §5

HER3 mRNA [7] = assay: HER3 mRNA knockdown in liver of xenograft-bearing nude mice, different dosing cycle; assay type: in vivo, mouse; conditions: for Liver HER3 mRNA relative to saline treated controls: 15PC3 xenograft mice, every third day
Experimental: as §1
as §4, with “Oligomers were administered by injection every third day in 2-4 doses.” left out
as §5

Question: Which “HER3 mRNA Tumor” value (human HER3 mRNA; 19.8 mg/kg) does the source give for “TSASGScScStSgStScSaScStStSCSTSC (antisense lT*lA*lG*dC*dC*dT*dG*dT*dC*dA*dC*dT*dT*l[5mC]*lT*l[5mC]) [SEQ ID NO: 180, β-D-oxy-LNA/DNA phosphorothioate gapmer antisense oligonucleotide targeting HER3]” here?
Answer: 83.1 ± 19.5%

Question: What about the “HER3 mRNA Tumor” value (human HER3 mRNA; 25.6 mg/kg) of the same substance?
Answer: 65 ± 20.2%

Question: What about the “HER3 mRNA Tumor” value (human HER3 mRNA; 31.3 mg/kg) of the same substance?
Answer: 37 ± 5.8%

Question: And the “HER3 mRNA Tumor” value (human HER3 mRNA; 66 mg/kg)?
Answer: 32.3 ± 9.7%

Question: What about the “HER3 mRNA Tumor” value (human HER3 mRNA; 85.3 mg/kg) of the same substance?
Answer: 25.8 ± 4.1%

Question: What about the “Mean tumor volume reduced vs. saline control” value ([1]; 30 mg/kg i.v.) of the same substance?
Answer: 65.5%

Question: What about the “Mean tumor volume reduced vs. saline control” value ([1]; 45 mg/kg i.v.) of the same substance?
Answer: 81.3%

Question: And the “HER3 Tumor” value (HER3 mRNA [2])?
Answer: 54.6 ± 15.2 % saline control

Question: What about the “Tumor HER3 mRNA relative to saline treated controls” value (HER3 mRNA [3]; 60.2 x 4 mg/kg i.v.) of the same substance?
Answer: 54.2 ± 9.1%

Question: And the “Tumor HER3 mRNA relative to saline treated controls” value (HER3 mRNA [3]; 60.2 x 2 or 3 mg/kg i.v.)?
Answer: 47.1 ± 2.2%

Question: What about the “reduction in cell growth as compared to the untreated control” value [4] of the same substance?
Answer: about 50%

Question: What about the “HER3 mRNA Liver” value (Mouse HER3 mRNA; 19.8 mg/kg) of the same substance?
Answer: 1.7 ± 0.6 % of Sal ctrl

Question: And the “HER3 mRNA Liver” value (Mouse HER3 mRNA; 25.6 mg/kg)?
Answer: 3 ± 0.3 % of Sal ctrl

Question: What about the “HER3 mRNA Liver” value (Mouse HER3 mRNA; 31.3 mg/kg) of the same substance?
Answer: 1.6 ± 0.3 % of Sal ctrl

Question: And the “HER3 mRNA Liver” value (Mouse HER3 mRNA; 66 mg/kg)?
Answer: 6 ± 5.3 % of Sal ctrl

Question: And the “HER3 mRNA Liver” value (Mouse HER3 mRNA; 85.3 mg/kg)?
Answer: 1 ± 0.3 % of Sal ctrl

Question: And the “Tumor Hif1A mRNA relative to saline treated controls” value (HIF-1 alpha mRNA)?
Answer: 101 ± 7.3%

Question: What about the “reduction in cell growth as compared to the untreated control” value [5] of the same substance?
Answer: greater than 80%

Question: What about the “prevention of feedback upregulation of HER3 and P-HER3 expression by lapatinib” value (HER3 and P-HER3) of the same substance?
Answer: able to prevent feedback upregulation of HER3 and P-HER3 expression by lapatinib

Question: And the “HER3 Tumor” value (HER3 mRNA [6])?
Answer: 46.6 ± 13.4 % saline control

Question: What about the “Liver HER3 mRNA relative to saline treated controls” value (HER3 mRNA [7]; 60.2 x 4 mg/kg i.v.) of the same substance?
Answer: 31.8 ± 5%

Question: What about the “Liver HER3 mRNA relative to saline treated controls” value (HER3 mRNA [7]; 60.2 x 2 or 3 mg/kg i.v.) of the same substance?
Answer: 6.9 ± 3.6%

Question: And the “HER3 Liver” value (HER3 mRNA [7]; A549 xenograft mice, 35 mg/kg, q4d x 3, i.v.)?
Answer: 31.8 ± 5.7 % saline control

Question: What about the “HER3 Liver” value (HER3 mRNA [7]; N87 xenograft mice, 25 mg/kg, q3d x 5, i.v.) of the same substance?
Answer: 24.7 ± 3.1 % saline control
